Reference: patent US12497428B2, “Galactoside inhibitor of galectins” (GALECTO BIOTECH AB, priority 2018, dated 2025)

Experiments:
Galectin-1 = Galectin-1 (Homo sapiens, UniProt P09382); experiment: Fluorescence anisotropy assay, inhibition of galectin / fluorescein tagged saccharide probe interaction; format: binding
Procedure: (§1) The affinity of Example 1-28 for galectins were determined by a fluorescence anisotropy assay where the compound was used as an inhibitor of the interaction between galectin and a fluorescein tagged saccharide probe as described Sörme, P., Kahl-Knutsson, B., Huflejt, M., Nilsson, U. J., and Leffler H. (2004) Fluorescence polarization as an analytical tool to evaluate galectin-ligand interactions. Anal. Biochem. 334: 36-47, (Sörme et al., 2004) and Monovalent interactions of Galectin-1 By Salomonsson, Emma; Larumbe, Amaia; Tejler, Johan; Tullberg, Erik; Rydberg, Hanna; Sundin, Anders; Khabut, Areej; Frejd, Torbjorn; Lobsanov, Yuri D.; Rini, James M.; et al, From Biochemistry (2010), 49(44), 9518-9532, (Salomonsson et al., 2010).

Galectin-3 = Galectin-3 (Homo sapiens, UniProt P17931); experiment: as above; format: binding
Procedure: as §1

Sequence of Galectin-3 (P17931 whole entry): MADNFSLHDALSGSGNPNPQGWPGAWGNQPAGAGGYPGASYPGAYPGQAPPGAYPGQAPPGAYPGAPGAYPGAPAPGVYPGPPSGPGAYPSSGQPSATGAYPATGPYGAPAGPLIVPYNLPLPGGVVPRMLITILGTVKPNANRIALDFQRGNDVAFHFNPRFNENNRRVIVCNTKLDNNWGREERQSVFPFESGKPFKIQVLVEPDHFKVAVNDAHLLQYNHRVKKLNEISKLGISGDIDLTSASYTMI
Sequence of Galectin-1 (P09382 whole entry): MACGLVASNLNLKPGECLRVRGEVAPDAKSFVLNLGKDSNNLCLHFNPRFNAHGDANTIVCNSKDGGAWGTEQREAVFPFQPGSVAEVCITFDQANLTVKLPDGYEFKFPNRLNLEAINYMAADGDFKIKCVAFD

Compound | Kd (Galectin-1) [nM] | Kd (Galectin-3) [nM]
O=P(O)(O)O[C@@H]1[C@@H](n2cc(-c3cc(F)c(F)c(F)c3)nn2)[C@@H](O)[C@@H](CO)O[C@@H]1Sc1cncc(Br)c1 [Example 1, 5-Bromopyridin-3-yl 3-deoxy-3-[4-(3,4,5-trifluorophenyl)-1H-1,2,3-triazol-1-yl]-2-O-phospho-1-thio-α-D-galactopyranoside] | 5400 | 
O=S(=O)(O)O[C@@H]1[C@@H](n2cc(-c3cc(F)c(F)c(F)c3)nn2)[C@@H](O)[C@@H](CO)O[C@@H]1Sc1cncc(Br)c1 [Example 4, 5-Bromopyridin-3-yl 3-deoxy-3-[4-(3,4,5-trifluorophenyl)-1H-1,2,3-triazol-1-yl]-2-O-sulfo-1-thio-α-D-galactopyranside] | 3150 | 3
O=C(O)CO[C@@H]1[C@@H](n2cc(-c3cc(F)c(F)c(F)c3)nn2)[C@@H](O)[C@@H](CO)O[C@@H]1Sc1ccc(Cl)c(Cl)c1 [Example 6, 3,4-Dichlorphenyl 2-O-carboxymethyl-3-deoxy-3-[4-(3,4,5-trifluorophenyl)-1H-1,2,3-triazol-1-yl]-1-thio-α-D-galactopyranoside] |  | 17
OC[C@H]1O[C@H](Sc2cncc(Br)c2)[C@H](OCc2cocn2)[C@@H](n2cc(-c3cc(F)c(F)c(F)c3)nn2)[C@H]1O [Example 10, 5-Bromopyridin-3-yl 3-deoxy-3-[4-(3,4,5-trifluorophenyl)-1H-1,2,3-triazol-1-yl]-2-O-(oxazol-4-ylmethyl)-1-thio-α-D-galactopyranoside] | 9200 | 24

Next, values leading:

Kd (Galectin-1) [nM] | Kd (Galectin-3) [nM] | Compound
6500 | 15 | CC(OC1C(n2cc(-c3cc(F)c(F)c(F)c3)nn2)[C@@H](O)C(CO)O[C@@H]1Sc1cncc(Br)c1)C(=O)O (single isomer, unassigned; diastereomer 1) [Example 27]
6400 | 6 | CC(OC1C(n2cc(-c3cc(F)c(F)c(F)c3)nn2)[C@@H](O)C(CO)O[C@@H]1Sc1cncc(Br)c1)C(=O)O (single isomer, unassigned; diastereomer 2) [Example 28]
1400 | 64 | OCC1O[C@H](Sc2ccc(Cl)c(Cl)c2)C(OCc2nnn[nH]2)C(n2cc(-c3cc(F)c(Cl)c(F)c3)nn2)[C@H]1O (stereo in doubt) [Example 13, 3,4-Dichlorphenyl 3-[4-(4-chloro-3,5-difluorophenyl)-1H-1,2,3-triazol-1-yl]-3-deoxy-2-O-[(1H-tetrazol-5-yl)methyl]-1-thio-α-D-galactopyranoside]
1800 | 8 | OCC1O[C@H](Sc2ccc(Cl)c(Cl)c2)C(OCc2nnn[nH]2)C(n2cc(-c3cc(F)c(F)c(F)c3)nn2)[C@H]1O (stereo in doubt) [Example 14, 3,4-Dichlorphenyl 3-deoxy-3-[4-(3,4,5-trifluorophenyl)-1H-1,2,3-triazol-1-yl]-2-O-[(1H-tetrazol-5-yl)methyl]-1-thio-α-D-galactopyranoside]
260 | 17 | OC[C@H]1O[C@H](Sc2cncc(Br)c2)[C@H](OCc2cc(F)c(O)c(F)c2)[C@@H](n2cc(-c3cc(F)c(F)c(F)c3)nn2)[C@H]1O [Example 11, 5-Bromopyridin-3-yl 3-deoxy-3-[4-(3,4,5-trifluorophenyl)-1H-1,2,3-triazol-1-yl]-2-O-(3,5-difluoro-4-hydroxybenzyl)-1-thio-α-D-galactopyranoside]
2400 | 16 | OC[C@H]1O[C@H](Sc2cncc(Br)c2)[C@H](OCc2nnn[nH]2)[C@@H](n2cc(-c3cc(F)c(F)c(F)c3)nn2)[C@H]1O [Example 12, 5-Bromopyridin-3-yl 3-deoxy-3-[4-(3,4,5-trifluorophenyl)-1H-1,2,3-triazol-1-yl]-2-O-[(1H-tetrazol-5-yl)methyl]-1-thio-α-D-galactopyranoside]
